Read-outs that look alike come from different tables or passages of the source.
What was measured:
UO-31 = experiment: NCI-60 SRB screen: renal cancer UO-31; format: cell-based, human
786-0 = experiment: NCI-60 SRB screen: renal cancer 786-0; format: cell-based, human
SK-MEL-28 = experiment: NCI-60 SRB screen: melanoma SK-MEL-28; format: cell-based, human
NCI-H522 = experiment: NCI-60 SRB screen: non-small cell lung cancer NCI-H522; format: cell-based, human
SW-620 = experiment: NCI-60 SRB screen: colon cancer SW-620; format: cell-based; details: Homo sapiens, SW-620, 48 h
SNB-19 = experiment: NCI-60 SRB screen: CNS cancer SNB-19; format: cell-based, human
NCI-H23 = experiment: NCI-60 SRB screen: non-small cell lung cancer NCI-H23; format: cell-based, human
MDA-MB-468 = experiment: NCI-60 SRB screen: breast cancer MDA-MB-468; format: cell-based, human; details: for GI50: five concentrations, 48 h, SRB
NCI-H322M = experiment: NCI-60 SRB screen: non-small cell lung cancer NCI-H322M; format: cell-based, human
BT-549 = experiment: NCI-60 SRB screen: breast cancer BT-549; format: cell-based, human
T-47D = experiment: NCI-60 SRB screen: breast cancer T-47D; format: cell-based, human
PC-3 = experiment: NCI-60 SRB screen: prostate cancer PC-3; format: cell-based, human
Renal Cancer subpanel = experiment: NCI-60 screen, subpanel Renal Cancer
HCC-2998 = experiment: NCI-60 SRB screen: colon cancer HCC-2998; format: cell-based, human
HOP-62 = experiment: NCI-60 SRB screen: non-small cell lung cancer HOP-62; format: cell-based, human
SF-268 = experiment: NCI-60 SRB screen: CNS cancer SF-268; format: cell-based, human
MALME-3M = experiment: NCI-60 SRB screen: melanoma MALME-3M; format: cell-based, human
SK-MEL-2 = experiment: NCI-60 SRB screen: melanoma SK-MEL-2; format: cell-based, human
HT29 = experiment: NCI-60 SRB screen: colon cancer HT29; format: cell-based; details: Homo sapiens, HT-29, 48 h
KM12 = experiment: NCI-60 SRB screen: colon cancer KM12; format: cell-based, human
OVCAR-4 = experiment: NCI-60 SRB screen: ovarian cancer OVCAR-4; format: cell-based; details: Homo sapiens, OVCAR-4, 48 h
EKVX = experiment: NCI-60 SRB screen: non-small cell lung cancer EKVX; format: cell-based, human
[1] = system: 60 human tumor cell lines; experiment: cells
NCI-H226 = experiment: NCI-60 SRB screen: non-small cell lung cancer NCI-H226; format: cell-based, human
CAKI-1 = experiment: NCI-60 SRB screen: renal cancer CAKI-1; format: cell-based, human
HCT-15 = experiment: NCI-60 SRB screen: colon cancer HCT-15; format: cell-based, human
Melanoma subpanel = experiment: NCI-60 screen, subpanel Melanoma
Ovarian Cancer subpanel = experiment: NCI-60 screen, subpanel Ovarian Cancer
NSCL cancer subpanel = experiment: NCI-60 screen, subpanel NSCL cancer
K-562 = experiment: NCI-60 SRB screen: leukemia K-562; format: cell-based, human
A549/ATCC = experiment: NCI-60 SRB screen: non-small cell lung cancer A549/ATCC; format: cell-based, human
Leukemia subpanel = experiment: NCI-60 screen, subpanel Leukemia
SF-539 = experiment: NCI-60 SRB screen: CNS cancer SF-539; format: cell-based, human
SK-OV-3 = experiment: NCI-60 SRB screen: ovarian cancer SK-OV-3; format: cell-based, human
[2] = read-out: Percentage Cell Growth

SMILES: C=C(C)[C@@H]1CC[C@]2(C(N)=O)CC[C@]3(C)[C@H](CC[C@@H]4[C@@]5(C)CC[C@H](O)C(C)(C)[C@@H]5CC[C@]43C)[C@@H]12 [Compound 5]
- GI50 (UO-31; Homo sapiens, UO-31, 48 h): 1720 nM
- Percentage Cell Growth (UO-31; UO-31, single dose 10 µM): −100.00%
- Percentage Cell Growth (786-0; 786-0, single dose 10 µM): −72.16%
- GI50 (786-0; Homo sapiens, 786-0, 48 h): 2030 nM
- GI50 (SK-MEL-28; Homo sapiens, SK-MEL-28, 48 h): 1090 nM
- Percentage Cell Growth (SK-MEL-28; SK-MEL-28, single dose 10 µM): 0.38%
- GI50 (NCI-H522; Homo sapiens, NCI-H522, 48 h): 3.13 µM
- Percentage Cell Growth (NCI-H522; NCI-H522, single dose 10 µM): −53.76%
- GI50 (SW-620): 3.88 µM
- activity at 10 µM (SW-620; [2]): -4.49%
- GI50 (SNB-19; Homo sapiens, SNB-19, 48 h): 4.57 µM
- Percentage Cell Growth (SNB-19; SNB-19, single dose 10 µM): 1.30%
- GI50 (NCI-H23; Homo sapiens, NCI-H23, 48 h): 2260 nM
- Percentage Cell Growth (NCI-H23; NCI-H23, single dose 10 µM): −27.08%
- GI50 (MDA-MB-468; Homo sapiens, MDA-MB-468, 48 h): 1970 nM
- GI50 (MDA-MB-468): 3200 nM
- Percentage Cell Growth (MDA-MB-468; single dose 10 µM): −56.03%
- GI50 (NCI-H322M; Homo sapiens, 48 h): 2590 nM
- Percentage Cell Growth (NCI-H322M; single dose 10 µM): −58.91%
- Percentage Cell Growth (BT-549; BT-549, single dose 10 µM): −21.60%
- GI50 (BT-549; Homo sapiens, BT-549, 48 h): 3.99 µM
- GI50 (T-47D; Homo sapiens, T47D, 48 h): 4.55 µM
- Percentage Cell Growth (T-47D; T-47D, single dose 10 µM): −24.75%
- GI50 (PC-3; Homo sapiens, PC-3, 48 h): 2830 nM
- Percentage Cell Growth (PC-3; PC-3, single dose 10 µM): −24.47%
- MID b, average sensitivity of all cell line of particular subpanel (Renal Cancer subpanel): 3.53 µM
- Selectivity, ratio MID a: MID b (Renal Cancer subpanel): 1.04
- Percentage Cell Growth (HCC-2998; HCC-2998, single dose 10 µM): −39.02%
- GI50 (HCC-2998; Homo sapiens, HCC 2998, 48 h): 3.96 µM
- Percentage Cell Growth (HOP-62; HOP-62, single dose 10 µM): −72.18%
- GI50 (HOP-62; Homo sapiens, HOP-62, 48 h): 3.21 µM
- GI50 (SF-268; Homo sapiens, SF-268, 48 h): 4.34 µM
- Percentage Cell Growth (SF-268; SF-268, single dose 10 µM): 4.41%
- GI50 (MALME-3M; Homo sapiens, Malme-3M, 48 h): 2390 nM
- Percentage Cell Growth (MALME-3M; MALME-3M, single dose 10 µM): −57.05%
- GI50 (SK-MEL-2; Homo sapiens, SK-MEL-2, 48 h): 7.63 µM
- Percentage Cell Growth (SK-MEL-2; SK-MEL-2, single dose 10 µM): −31.18%
- GI50 (HT29): 2560 nM
- activity at 10 µM (HT29; [2]): -49.5%
- GI50 (KM12; Homo sapiens, KM12, 48 h): 3.2 µM
- Percentage Cell Growth (KM12; KM12, single dose 10 µM): −63.59%
- GI50 (OVCAR-4): 3.54 µM
- GI50 (EKVX; Homo sapiens, 48 h): 2960 nM
- Percentage Cell Growth (EKVX; single dose 10 µM): −10.31%
- GI50 ([1]; read-out: GI50 ranges against all panels of NCI60): 1.09 to 13.2 µM
- GI50 ([1]; read-out: MID a, average sensitivity of all cell line (GI50-MID)): 3.67 µM
- GI50 (NCI-H226; Homo sapiens, NCI-H226, 48 h): 4.11 µM
- Percentage Cell Growth (NCI-H226; NCI-H226, single dose 10 µM): −50.47%
- Percentage Cell Growth (CAKI-1; CAKI-1, single dose 10 µM): −64.30%
- GI50 (CAKI-1; Homo sapiens, CAKI-1, 48 h): 1980 nM
- Percentage Cell Growth (HCT-15; HCT-15, single dose 10 µM): 6.36%
- GI50 (HCT-15; Homo sapiens, HCT-15, 48 h): 3.28 µM
- MID b, average sensitivity of all cell line of particular subpanel (Melanoma subpanel): 5.58 µM
- Selectivity, ratio MID a: MID b (Melanoma subpanel): 0.66
- MID b, average sensitivity of all cell line of particular subpanel (Ovarian Cancer subpanel): 3.88 µM
- Selectivity, ratio MID a: MID b (Ovarian Cancer subpanel): 0.95
- MID b, average sensitivity of all cell line of particular subpanel (NSCL cancer subpanel): 2.79 µM
- Selectivity, ratio MID a: MID b (NSCL cancer subpanel): 1.32
- GI50 (K-562; Homo sapiens, K562, 48 h): 3.04 µM
- Percentage Cell Growth (K-562; K-562, single dose 10 µM): 4.57%
- Percentage Cell Growth (A549/ATCC; A549/ATCC, single dose 10 µM): −69.33%
- GI50 (A549/ATCC; Homo sapiens, A549, 48 h): 2110 nM
- MID b, average sensitivity of all cell line of particular subpanel (Leukemia subpanel): 3.20 µM
- Selectivity, ratio MID a: MID b (Leukemia subpanel): 1.15
- GI50 (SF-539; Homo sapiens, SF-539, 48 h): 1780 nM
- Percentage Cell Growth (SF-539; SF-539, single dose 10 µM): −70.46%
- GI50 (SK-OV-3; Homo sapiens, SK-OV-3, 48 h): 8.18 µM
- Percentage Cell Growth (SK-OV-3; SK-OV-3, single dose 10 µM): −45.72%
